From patent US9302999B2, “Substituted triazoles as herbicides” (E. I. DU PONT DE NEMOURS AND COMPANY, priority 2012, dated 2016)

Tests used:
Format in all cases: in vivo
[1] = test system: wheat (Triticum aestivum); experiment: Test A pre-/postemergence: wheat
Procedure, shortened: (§1)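 Seeds were sown in loam/sand blend and sprayed preemergence (directed soil spray) and, simultaneously, postemergence at 2–10 cm, one- to two-leaf stage, using compounds in non-phytotoxic solvent with surfactant. After ~10 days in greenhouse, injury was rated visually versus untreated controls, 0 (no effect) to 100 (complete control).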

[2] = test system: ducksalad (Heteranthera limosa); experiment: Test B flooded paddy: ducksalad; conditions: Flood; 125 g ai/ha; applied to paddy water at 2-leaf stage; visually evaluated after 13 to 15 days
Procedure, shortened: (§2)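 Plants were grown to the 2-leaf stage, then pots were flooded to 3 cm above the soil and compounds were applied directly into the paddy water. Water depth was held for the whole test; after 13 to 15 days in a greenhouse, injury was visually rated against untreated controls (0 = no effect, 100 = complete control).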

[3] = test system: crabgrass, large (large crabgrass, Digitaria sanguinalis); experiment: Test A pre-/postemergence: crabgrass, large
Procedure, shortened: as §1

[4] = test system: barnyardgrass (Echinochloa crus-galli); experiment: Test B flooded paddy: barnyardgrass; conditions: Flood; 125 g ai/ha; applied to paddy water at 2-leaf stage; visually evaluated after 13 to 15 days
Procedure, shortened: as §2

[5] = test system: pigweed (Amaranthus retroflexus); experiment: Test A pre-/postemergence: pigweed
Procedure, shortened: as §1

[6] = test system: barnyardgrass (Echinochloa crus-galli); experiment: Test A pre-/postemergence: barnyardgrass
Procedure, shortened: as §1

[7] = test system: morningglory (Ipomoea spp.); experiment: Test A pre-/postemergence: morningglory
Procedure, shortened: as §1

[8] = test system: velvetleaf (Abutilon theophrasti); experiment: Test A pre-/postemergence: velvetleaf
Procedure, shortened: as §1

[9] = test system: corn (Zea mays); experiment: Test A pre-/postemergence: corn
Procedure, shortened: as §1

[10] = test system: rice (Oryza sativa); experiment: Test B flooded paddy: rice; conditions: Flood; 125 g ai/ha; applied to paddy water at 2-leaf stage; visually evaluated after 13 to 15 days
Procedure, shortened: as §2

[11] = test system: sedge, umbrella (small-flower umbrella sedge Cyperus difformis); experiment: Test B flooded paddy: sedge, umbrella; conditions: Flood; 125 g ai/ha; applied to paddy water at 2-leaf stage; visually evaluated after 13 to 15 days
Procedure, shortened: as §2

[12] = test system: foxtail, giant (giant foxtail, Setaria faberii); experiment: Test A pre-/postemergence: foxtail, giant
Procedure, shortened: as §1

[13] = Postemergence, 125 g ai/ha, 0 to 100 scale, 0 is no effect, 100 is complete control
[14] = Postemergence, 500 g ai/ha, 0 to 100 scale, 0 is no effect, 100 is complete control
[15] = Preemergence, 125 g ai/ha, 0 to 100 scale where 0 is no effect and 100 is complete control
[16] = Preemergence, 500 g ai/ha, 0 to 100 scale (0 no effect, 100 complete control)

FC(F)(F)c1cccc(-n2nc(Oc3ccnc(C(F)(F)F)c3)c(C3CC3)n2)c1 [Compound 199]
50: Plant response rating, Foxtail, Giant [12, 16]
30: Plant response rating, Pigweed [5, 16]
0: Plant response rating, Wheat [1, 13] | Wheat plant response rating [1, 14] | Plant response rating, Wheat [1, 15] | Plant response rating, Wheat [1, 16] | Plant response rating, Ducksalad (0 to 100 scale, 0 is no effect, 100 is complete control) [2] | Plant response rating, Barnyardgrass (0 to 100 scale, 0 is no effect, 100 is complete control) [4] | Plant response rating, Barnyardgrass [6, 15] | Plant response rating, Barnyardgrass [6, 16] | Plant response rating, Morningglory [7, 15] | Plant response rating, Morningglory [7, 16] | Plant response rating, Velvetleaf [8, 15] | Plant response rating, Velvetleaf [8, 16] | Plant response rating, Corn [9, 15] | Plant response rating, Corn [9, 16] | Plant response rating, Rice (0 to 100 scale, 0 is no effect, 100 is complete control) [10] | Plant response rating, Sedge, Umbrella (0 to 100 scale, 0 is no effect, 100 is complete control) [11] | Plant response rating, Foxtail, Giant [12, 15]
20: Crabgrass, Large plant response rating [3, 14] | Plant response rating, Crabgrass, Large [3, 15] | Plant response rating, Pigweed [5, 13] | Morningglory plant response rating [7, 14] | Corn plant response rating [9, 14] | Foxtail, Giant plant response rating [12, 14]
60: Pigweed plant response rating [5, 14]
70: Plant response rating, Crabgrass, Large [3, 16]
10: Plant response rating, Crabgrass, Large [3, 13] | Plant response rating, Pigweed [5, 15] | Plant response rating, Barnyardgrass [6, 13] | Barnyardgrass plant response rating [6, 14] | Plant response rating, Morningglory [7, 13] | Plant response rating, Velvetleaf [8, 13] | Velvetleaf plant response rating [8, 14] | Plant response rating, Corn [9, 13] | Plant response rating, Foxtail, Giant [12, 13]
